Measured values as given in US9216999B2, “Substituted pyrrolo[2,3-h][1,6]naphthyridines and compositions thereof as JAK inhibitors” (priority 2011, dated 2015).

Experiments:
Format in all cases: biochemical
Settings in all cases: ATP 100 μM
JAK2 = JAK2 (Homo sapiens (Human), UniProt O60674); experiment: Enzyme assay (Assay Example^a 1), JAK2
JAK3 = JAK3 (Homo sapiens (Human), UniProt P52333); experiment: Enzyme assay (Assay Example^a 1), JAK3
JAK1 = JAK1 (Homo sapiens (Human), UniProt P23458); experiment: Enzyme assay (Assay Example^a 1), JAK1
Tyk2 = Tyk2 (Homo sapiens (Human), UniProt P29597); experiment: Enzyme assay (Assay Example^a 1), Tyk2
Chain of Tyk2 (P29597 whole entry): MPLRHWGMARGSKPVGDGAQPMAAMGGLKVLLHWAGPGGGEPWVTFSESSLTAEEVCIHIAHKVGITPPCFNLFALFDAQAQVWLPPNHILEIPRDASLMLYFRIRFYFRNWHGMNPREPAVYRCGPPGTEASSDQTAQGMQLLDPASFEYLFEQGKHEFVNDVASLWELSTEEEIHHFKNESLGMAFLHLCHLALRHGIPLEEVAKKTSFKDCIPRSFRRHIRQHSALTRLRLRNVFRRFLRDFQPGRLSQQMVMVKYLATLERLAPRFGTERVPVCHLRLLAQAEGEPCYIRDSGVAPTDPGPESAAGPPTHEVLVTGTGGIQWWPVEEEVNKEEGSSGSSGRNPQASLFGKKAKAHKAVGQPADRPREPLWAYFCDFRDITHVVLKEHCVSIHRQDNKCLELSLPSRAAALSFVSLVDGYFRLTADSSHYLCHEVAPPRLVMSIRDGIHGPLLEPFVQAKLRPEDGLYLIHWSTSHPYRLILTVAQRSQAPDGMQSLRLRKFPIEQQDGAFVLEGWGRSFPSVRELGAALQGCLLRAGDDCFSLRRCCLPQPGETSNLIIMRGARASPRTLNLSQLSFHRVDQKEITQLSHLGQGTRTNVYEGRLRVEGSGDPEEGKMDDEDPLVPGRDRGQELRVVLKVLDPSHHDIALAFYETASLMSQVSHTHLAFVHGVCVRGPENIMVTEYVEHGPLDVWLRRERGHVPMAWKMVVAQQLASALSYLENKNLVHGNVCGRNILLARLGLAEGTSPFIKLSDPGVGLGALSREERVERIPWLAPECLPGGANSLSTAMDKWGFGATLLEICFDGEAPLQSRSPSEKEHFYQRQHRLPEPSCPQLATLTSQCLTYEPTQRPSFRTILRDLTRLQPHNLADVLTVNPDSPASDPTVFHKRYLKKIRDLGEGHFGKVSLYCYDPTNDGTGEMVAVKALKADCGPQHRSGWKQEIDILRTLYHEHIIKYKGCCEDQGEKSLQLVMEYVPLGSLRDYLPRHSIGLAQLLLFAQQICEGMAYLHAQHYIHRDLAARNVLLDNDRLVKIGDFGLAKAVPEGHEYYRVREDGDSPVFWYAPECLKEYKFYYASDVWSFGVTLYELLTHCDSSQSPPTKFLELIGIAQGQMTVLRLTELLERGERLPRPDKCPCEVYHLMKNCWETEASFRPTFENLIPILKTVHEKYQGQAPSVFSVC

Chain of JAK3 (P52333 whole entry): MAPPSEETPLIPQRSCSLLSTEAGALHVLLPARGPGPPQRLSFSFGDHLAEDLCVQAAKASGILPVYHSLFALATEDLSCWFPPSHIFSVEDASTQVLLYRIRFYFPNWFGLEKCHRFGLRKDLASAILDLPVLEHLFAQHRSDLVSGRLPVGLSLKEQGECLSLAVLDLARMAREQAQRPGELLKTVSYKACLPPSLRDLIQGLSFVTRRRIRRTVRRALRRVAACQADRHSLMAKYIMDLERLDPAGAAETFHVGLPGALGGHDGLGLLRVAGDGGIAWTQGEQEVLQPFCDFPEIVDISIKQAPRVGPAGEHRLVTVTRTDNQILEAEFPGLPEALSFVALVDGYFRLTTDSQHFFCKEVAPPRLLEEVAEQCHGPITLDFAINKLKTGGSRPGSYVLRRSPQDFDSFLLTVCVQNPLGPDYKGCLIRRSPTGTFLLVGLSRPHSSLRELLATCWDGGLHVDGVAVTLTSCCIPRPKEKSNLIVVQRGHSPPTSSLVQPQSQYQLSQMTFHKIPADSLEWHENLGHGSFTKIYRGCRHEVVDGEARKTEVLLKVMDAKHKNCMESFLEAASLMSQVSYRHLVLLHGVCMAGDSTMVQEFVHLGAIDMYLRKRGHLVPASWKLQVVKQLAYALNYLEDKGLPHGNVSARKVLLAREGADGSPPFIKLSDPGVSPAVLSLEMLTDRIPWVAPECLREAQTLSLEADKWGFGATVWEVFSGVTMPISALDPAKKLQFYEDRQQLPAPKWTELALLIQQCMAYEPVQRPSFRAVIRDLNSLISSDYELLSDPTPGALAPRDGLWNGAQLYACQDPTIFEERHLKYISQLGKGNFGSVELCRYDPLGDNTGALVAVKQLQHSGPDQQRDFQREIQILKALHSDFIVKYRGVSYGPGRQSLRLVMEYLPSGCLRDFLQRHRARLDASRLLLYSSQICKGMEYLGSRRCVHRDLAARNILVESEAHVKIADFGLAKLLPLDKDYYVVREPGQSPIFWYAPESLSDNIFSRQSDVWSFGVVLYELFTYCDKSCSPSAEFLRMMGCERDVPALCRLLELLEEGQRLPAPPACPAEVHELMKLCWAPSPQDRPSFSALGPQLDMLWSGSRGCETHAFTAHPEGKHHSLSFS

IC50 (JAK2)	IC50 (JAK3)	IC50 (JAK1)	IC50 (Tyk2)	SMILES	IC50 (JAK2; Table^a 154)	IC50 (JAK3; Table^a 154)	IC50 (JAK1; Table^a 154)	IC50 (Tyk2; Table^a 154)
0.0056 µM	0.054 µM	0.0026 µM	0.32 µM	N#CCN(C[C@H]1CC[C@H](c2nnn3cnc4[nH]ccc4c23)CC1)C(=O)CC(F)(F)F [compound 412, N-{[trans-4-(7H-Pyrrolo[3,2-e][1,2,3]triazolo[1,5-c]pyrimidin-1-yl)cyclohexyl]methyl}-N-(cyanomethyl)-3,3,3-trifluoropropanamide]	–	–	–	–
0.022 µM	0.082 µM	0.0025 µM	0.37 µM	OC1(C(F)(F)F)CN(C[C@H]2CC[C@H](c3nnn4cnc5[nH]ccc5c34)CC2)C1 [compound 425, 1-{[trans-4-(7H-Pyrrolo[3,2-e][1,2,3]triazolo[1,5-c]pyrimidin-1-yl)cyclohexyl]methyl}-3-(trifluoromethyl)azetidin-3-ol]	–	–	–	–
0.034 µM	0.13 µM	0.0039 µM	0.35 µM	FC(F)(F)C(F)(F)CNC[C@H]1CC[C@H](c2nnn3cnc4[nH]ccc4c23)CC1 [compound 342, N-{[trans-4-(7H-pyrrolo[3,2-e][1,2,3]triazolo[1,5-c]pyrimidin-1-yl)cyclohexyl]methyl}-2,2,3,3,3-pentafluoropropan-1-amine]	–	–	–	–
0.01 µM	0.41 µM	0.0015 µM	> 1 µM	Brc1csc(CN2CCC(c3nnn4cnc5[nH]ccc5c34)CC2)c1 [compound 237, 1-{1-[(4-bromothiophen-2-yl)methyl]piperidin-4-yl}-7H-pyrrolo[3,2-e][1,2,3]triazolo[1,5-c]pyrimidine]	–	–	–	–
0.027 µM	0.28 µM	0.0017 µM	0.39 µM	CSc1ccc(C(O)(CN[C@H]2CC[C@H](c3nnn4cnc5[nH]ccc5c34)CC2)C(F)(F)F)cc1 (stereo partly drawn) [386b, 3-{[trans-4-(7H-pyrrolo[3,2-e][1,2,3]triazolo[1,5-c]pyrimidin-1-yl)cyclohexyl]amino}-1,1,1-trifluoro-2-[4-(methylthio)phenyl]propan-2-ol]	–	–	–	–
–	–	–	–	Fc1ccc2c(c1)CCN2C[C@H]1CC[C@H](c2nnn3cnc4[nH]ccc4c23)CC1 [compound 179, 1-[trans-4-((5-fluoroindolin-1-yl)methyl)cyclohexyl]-7H-pyrrolo[3,2-e][1,2,3]triazolo[1,5-c]pyrimidine]	0.094 µM	> 1 µM	0.028 µM	> 1 µM
0.051 µM	> 1 µM	0.0028 µM	0.13 µM	CC1(O)CN(C[C@H]2CC[C@H](c3nnn4cnc5[nH]ccc5c34)CC2)C1 [compound 422, 1-{[trans-4-(7H-pyrrolo[3,2-e][1,2,3]triazolo[1,5-c]pyrimidin-1-yl)cyclohexyl]methyl}-3-methylazetidin-3-ol]	–	–	–	–
0.034 µM	0.66 µM	0.0034 µM	0.75 µM	Fc1ccc(C2(NC[C@H]3CC[C@H](c4nnn5cnc6[nH]ccc6c45)CC3)CCC2)cc1 [compound 324, N-{[trans-4-(7H-pyrrolo[3,2-e][1,2,3]triazolo[1,5-c]pyrimidin-1-yl)cyclohexyl]methyl}-1-(4-fluorophenyl)cyclobutanamine]	–	–	–	–
0.014 µM	0.1 µM	0.0032 µM	0.88 µM	O=C(C[C@H]1CC[C@H](c2nnn3cnc4[nH]ccc4c23)CC1)NCC(F)(F)F [442b, 2-[trans-4-(7H-Pyrrolo[3,2-e][1,2,3]triazolo[1,5-c]pyrimidin-1-yl)cyclohexyl]-N-2,2,2-trifluoroethylacetamide]	–	–	–	–
0.097 µM	0.59 µM	0.0074 µM	> 1 µM	CC(C)(O)c1cn(C[C@H]2CC[C@H](c3nnn4cnc5[nH]ccc5c34)CC2)nn1 [compound 370, 2-(1-{[trans-4-(7H-Pyrrolo[3,2-e][1,2,3]triazolo[1,5-c]pyrimidin-1-yl)cyclohexyl]methyl}-1H-1,2,3-triazol-4-yl)propan-2-ol]	–	–	–	–
0.016 µM	0.49 µM	0.0017 µM	0.049 µM	OC1CN(C[C@H]2CC[C@H](c3nnn4cnc5[nH]ccc5c34)CC2)C1 [compound 257, 1-{[trans-4-(7H-pyrrolo[3,2-e][1,2,3]triazolo[1,5-c]pyrimidin-1-yl)cyclohexyl]methyl}azetidin-3-ol]	–	–	–	–
–	–	–	–	O=C([C@H]1CC[C@H](c2nnn3cnc4[nH]ccc4c23)CC1)N1CC[C@H](F)C1 [compound 209, [trans-4-(7H-pyrrolo[3,2-e][1,2,3]triazolo[1,5-c]pyrimidin-1-yl)cyclohexyl][(S)-3-fluoropyrrolidin-1-yl]methanone]	0.42 µM	> 1 µM	0.061 µM	> 1 µM
0.081 µM	0.62 µM	0.039 µM	0.97 µM	c1cc2c(ncn3nnc(C4CCN(Cc5cocn5)CC4)c23)[nH]1 [compound 219, 4-{[4-(7H-pyrrolo[3,2-e][1,2,3]triazolo[1,5-c]pyrimidin-1-yl)piperidin-1-yl]methyl}oxazole]	–	–	–	–
0.0081 µM	0.27 µM	0.0021 µM	0.037 µM	N#CCNC[C@H]1CC[C@H](c2nnn3cnc4[nH]ccc4c23)CC1 [compound 259, 2-({[trans-4-(7H-pyrrolo[3,2-e][1,2,3]triazolo[1,5-c]pyrimidin-1-yl)cyclohexyl]methyl}amino)acetonitrile]	–	–	–	–
0.032 µM	0.12 µM	0.0019 µM	0.18 µM	COc1ccc(C(O)(CN[C@H]2CC[C@H](c3nnn4cnc5[nH]ccc5c34)CC2)C(F)(F)F)cn1 (stereo partly drawn) [387b, 3-{[trans-4-(7H-pyrrolo[3,2-e][1,2,3]triazolo[1,5-c]pyrimidin-1-yl)cyclohexyl]amino}-1,1,1-trifluoro-2-(6-methoxypyridin-3-yl)propan-2-ol]	–	–	–	–
–	–	–	–	Fc1ccc(CN2CCC(c3nnn4cnc5[nH]ccc5c34)CC2)cc1F [compound 166, 1-[1-(3,4-difluorobenzyl)piperidin-4-yl]-7H-pyrrolo[3,2-e][1,2,3]triazolo[1,5-c]pyrimidine]	0.023 µM	0.17 µM	0.0053 µM	0.49 µM
–	–	–	–	Fc1ccc(CCN[C@H]2CC[C@H](c3nnn4cnc5[nH]ccc5c34)CC2)cc1 [201b, trans-N-(4-fluorophenethyl)-4-(7H-pyrrolo[3,2-e][1,2,3]triazolo[1,5-c]pyrimidin-1-yl)cyclohexanamine]	0.066 µM	0.41 µM	0.0039 µM	0.1 µM

SMILES	IC50 (JAK2)	IC50 (JAK3)	IC50 (JAK1)	IC50 (Tyk2)	IC50 (JAK2; Table^a 154)	IC50 (JAK3; Table^a 154)	IC50 (JAK1; Table^a 154)	IC50 (Tyk2; Table^a 154)
FC(F)Oc1ccc(CN2CCC(c3nnn4cnc5[nH]ccc5c34)CC2)cc1 [compound 220, 1-{1-[4-(difluoromethoxy)benzyl]piperidin-4-yl}-7H-pyrrolo[3,2-e][1,2,3]triazolo[1,5-c]pyrimidine]	0.086 µM	0.62 µM	0.013 µM	> 1 µM	–	–	–	–
OC12CC3CC(C1)C(NC[C@H]1CC[C@H](c4nnn5cnc6[nH]ccc6c45)CC1)C(C3)C2 (stereo partly drawn) [compound 303, (1S,3R,4r,5S,7S)-4-({[trans-4-(7H-pyrrolo[3,2-e][1,2,3]triazolo[1,5-c]pyrimidin-1-yl)cyclohexyl]methyl}amino)adamantan-1-ol]	0.35 µM	> 1 µM	0.057 µM	> 1 µM	–	–	–	–
N#C[C@H]1CC[C@H](c2nnn3cnc4[nH]ccc4c23)CC1 [compound 430, trans-4-(7H-Pyrrolo[3,2-e][1,2,3]triazolo[1,5-c]pyrimidin-1-yl)cyclohexanecarbonitrile]	0.049 µM	> 1 µM	0.0086 µM	0.41 µM	–	–	–	–
CN[C@H]1CC[C@H](c2nnn3cnc4[nH]ccc4c23)CC1 [398b, trans-N-methyl-4-(7H-pyrrolo[3,2-e][1,2,3]triazolo[1,5-c]pyrimidin-1-yl)cyclohexanamine]	0.11 µM	> 1 µM	0.029 µM	0.75 µM	–	–	–	–
N#Cc1cc(NC[C@H]2CC[C@H](c3nnn4cnc5[nH]ccc5c34)CC2)ccc1F [compound 252, 5-({[trans-4-(7H-pyrrolo[3,2-e][1,2,3]triazolo[1,5-c]pyrimidin-1-yl)cyclohexyl]methyl}amino)-2-fluorobenzonitrile]	0.06 µM	> 1 µM	0.017 µM	> 1 µM	–	–	–	–
O=C1COc2ccc(CN3CCC(c4nnn5cnc6[nH]ccc6c45)CC3)cc2N1 [compound 225, 6-{[4-(7H-pyrrolo[3,2-e][1,2,3]triazolo[1,5-c]pyrimidin-1-yl)piperidin-1-yl]methyl}-2H-benzo[b][1,4]oxazin-3(4H)-one]	0.2 µM	> 1 µM	0.021 µM	> 1 µM	–	–	–	–
N#CC=C1CCC(c2nnn3cnc4[nH]ccc4c23)CC1 (stereo not drawn) [compound 434, 2-[4-(7H-pyrrolo[3,2-e][1,2,3]triazolo[1,5-c]pyrimidin-1-yl)cyclohexylidene]acetonitrile]	0.014 µM	0.49 µM	0.0023 µM	0.034 µM	–	–	–	–
Cc1c(CN2CCC(c3nnn4cnc5[nH]ccc5c34)CC2)c(Cl)nn1CC(F)(F)F [compound 374, 1-{1-[(3-Chloro-5-methyl-1-(2,2,2-trifluoroethyl)-1H-pyrazol-4-yl)methyl]piperidin-4-yl}-7H-pyrrolo[3,2-e][1,2,3]triazolo[1,5-c]pyrimidine]	0.18 µM	> 1 µM	0.038 µM	> 1 µM	–	–	–	–
FC(F)(F)C1CCN(C[C@H]2CC[C@H](c3nnn4cnc5[nH]ccc5c34)CC2)CC1 [compound 258, 1-(trans-4-{[4-(trifluoromethyl)piperidin-1-yl]methyl}cyclohexyl)-7H-pyrrolo[3,2-e][1,2,3]triazolo[1,5-c]pyrimidine]	0.081 µM	> 1 µM	0.012 µM	0.74 µM	–	–	–	–
CC(C)(C)OC(=O)N[C@@H]1CCN(C[C@H]2CC[C@H](c3nnn4cnc5[nH]ccc5c34)CC2)C1 [compound 299, tert-butyl ((R)-1-{[trans-4-(7H-pyrrolo[3,2-e][1,2,3]triazolo[1,5-c]pyrimidin-1-yl)cyclohexyl]methyl}pyrrolidin-3-yl)carbamate]	0.17 µM	> 1 µM	0.016 µM	> 1 µM	–	–	–	–
